Patent US20100204182A1, “ECTONUCLEOTIDASE INHIBITORS” (RHEINISCHE FRIEDRICH-WILHELMS-UNIVERSITAT BONN, priority 2006, published 2010)

Assays:
[1] = molecular target: T1, human NTPDase1 (Homo sapiens, UniProt P49961); assay: NTPDase inhibition assay by capillary electrophoresis (CE), NTPDase1; format: biochemical; details: CE method, ATP 320 μM, Km 17 μM, read-out: NTPDase1 Ki [μM] ± SEM
T1 sequence (P49961 1-510): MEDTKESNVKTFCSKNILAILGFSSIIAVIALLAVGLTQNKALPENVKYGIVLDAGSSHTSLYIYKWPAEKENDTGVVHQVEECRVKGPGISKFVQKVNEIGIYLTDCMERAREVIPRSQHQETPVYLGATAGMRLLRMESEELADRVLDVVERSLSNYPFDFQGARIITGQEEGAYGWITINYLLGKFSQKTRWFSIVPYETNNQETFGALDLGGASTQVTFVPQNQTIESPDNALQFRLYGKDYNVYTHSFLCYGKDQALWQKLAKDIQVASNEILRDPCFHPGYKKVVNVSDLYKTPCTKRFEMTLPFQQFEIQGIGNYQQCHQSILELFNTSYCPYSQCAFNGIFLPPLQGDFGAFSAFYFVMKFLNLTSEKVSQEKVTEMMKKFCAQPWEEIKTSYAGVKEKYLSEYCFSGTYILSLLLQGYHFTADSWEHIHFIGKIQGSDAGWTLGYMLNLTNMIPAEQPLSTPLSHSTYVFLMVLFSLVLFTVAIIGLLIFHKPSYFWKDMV
How it was run: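 Recombinant or native human NTPDase was run with 320 μM ATP in Hepes buffer pH 7.4 (NaCl, KCl, MgCl2, CaCl2) at 37° C for 15 min, stopped by heating at 99° C. Products were quantified by capillary electrophoresis (UV 210 nm, UMP internal standard). IC50 from 6-8 concentrations was converted to Ki by Cheng-Prusoff.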

[2] = molecular target: T2, human NTPDase2 (Homo sapiens, UniProt Q9Y5L3); assay: NTPDase inhibition assay by capillary electrophoresis (CE), NTPDase2; format: biochemical; details: for inhibition at 1000 µM: read-out: NTPDase2 inhibition (%) at 1 mM
T2 sequence (Q9Y5L3 1-495): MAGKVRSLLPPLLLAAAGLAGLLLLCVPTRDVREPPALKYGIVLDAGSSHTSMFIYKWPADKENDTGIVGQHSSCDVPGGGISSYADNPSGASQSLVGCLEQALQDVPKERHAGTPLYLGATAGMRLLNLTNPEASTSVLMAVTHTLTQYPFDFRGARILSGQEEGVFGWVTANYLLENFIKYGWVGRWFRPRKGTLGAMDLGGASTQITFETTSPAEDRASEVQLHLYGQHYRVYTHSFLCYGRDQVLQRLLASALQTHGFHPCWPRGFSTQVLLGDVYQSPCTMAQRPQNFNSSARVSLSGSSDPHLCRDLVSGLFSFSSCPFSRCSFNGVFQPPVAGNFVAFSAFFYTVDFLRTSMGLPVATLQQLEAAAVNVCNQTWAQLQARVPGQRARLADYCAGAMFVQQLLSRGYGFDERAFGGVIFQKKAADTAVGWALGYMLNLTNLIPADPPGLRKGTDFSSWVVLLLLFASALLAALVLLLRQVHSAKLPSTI

[3] = molecular target: hP2Y2 (Homo sapiens, UniProt P41231); assay: Inhibition of UTP binding at hP2Y2; details: read-out: hP2Y2 % inhibition of UTP binding at 100 μM, n = 3, mean ± SEM
Protocol: (§1) In table 2 inhibition data of selected examples at human P2Y receptor subtypes were collected. It can be seen that no compound was identified that inhibited P2Y receptors at high concentrations of 100 μM and 10 μM, respectively.

[4] = molecular target: hP2Y4 (Homo sapiens, UniProt P51582); assay: Inhibition of UTP binding at hP2Y4; details: read-out: hP2Y4 % inhibition of UTP binding at 100 μM, n = 3, mean ± SEM
Protocol: as §1

[5] = molecular target: rP2Y6 (Rattus norvegicus, UniProt Q63371); assay: Inhibition of UDP binding at rP2Y6; details: read-out: rP2Y6 % inhibition of UDP binding at 100 μM, n = 3, mean ± SEM
[6] = molecular target: hP2Y12 (Homo sapiens, UniProt Q9H244); assay: Inhibition of [3H]PSB-0413 binding at hP2Y12; details: mean ± SEM, read-out: hP2Y12 % Inhibition of [^3H]PSB-0413 Binding at 10 μM, n = 3
Protocol: as §1

[7] = molecular target: T3, rat NTPDase1 (Rattus norvegicus, UniProt P97687); assay: Rat NTPDase1 inhibition, in-capillary electrophoresis method (standard compounds); format: biochemical; details: read-out: NTPDase1 Ki ± SEM
T3 sequence (P97687 1-511): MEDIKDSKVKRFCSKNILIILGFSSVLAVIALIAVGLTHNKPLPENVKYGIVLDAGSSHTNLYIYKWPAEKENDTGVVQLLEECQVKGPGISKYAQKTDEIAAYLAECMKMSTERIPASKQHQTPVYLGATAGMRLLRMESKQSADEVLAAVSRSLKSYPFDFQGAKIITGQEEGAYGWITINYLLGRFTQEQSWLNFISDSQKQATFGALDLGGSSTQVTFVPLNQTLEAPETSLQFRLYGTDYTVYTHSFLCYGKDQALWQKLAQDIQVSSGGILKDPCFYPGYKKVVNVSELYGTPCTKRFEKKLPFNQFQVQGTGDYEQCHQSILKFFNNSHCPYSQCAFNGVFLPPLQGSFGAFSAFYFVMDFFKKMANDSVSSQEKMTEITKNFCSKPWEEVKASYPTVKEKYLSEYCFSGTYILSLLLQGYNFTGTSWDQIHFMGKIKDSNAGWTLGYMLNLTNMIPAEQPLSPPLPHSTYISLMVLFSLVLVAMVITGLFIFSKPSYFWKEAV

[8] = molecular target: T4, rat NTPDase2 (Rattus norvegicus, UniProt O35795); assay: Rat NTPDase2 inhibition, in-capillary electrophoresis method (standard compounds); format: biochemical; details: read-out: NTPDase2 Ki ± SEM
T4 sequence (O35795 1-495): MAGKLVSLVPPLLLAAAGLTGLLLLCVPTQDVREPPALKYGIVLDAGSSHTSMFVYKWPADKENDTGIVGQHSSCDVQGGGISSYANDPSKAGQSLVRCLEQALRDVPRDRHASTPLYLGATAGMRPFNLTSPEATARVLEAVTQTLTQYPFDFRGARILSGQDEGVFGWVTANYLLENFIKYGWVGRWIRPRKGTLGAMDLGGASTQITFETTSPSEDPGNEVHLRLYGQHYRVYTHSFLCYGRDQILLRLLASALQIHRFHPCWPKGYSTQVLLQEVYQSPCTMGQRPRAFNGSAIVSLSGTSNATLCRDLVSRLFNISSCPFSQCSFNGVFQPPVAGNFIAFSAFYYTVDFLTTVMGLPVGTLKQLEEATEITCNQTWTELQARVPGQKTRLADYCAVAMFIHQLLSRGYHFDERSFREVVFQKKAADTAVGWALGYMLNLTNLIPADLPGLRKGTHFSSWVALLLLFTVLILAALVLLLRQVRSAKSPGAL

[9] = molecular target: T5, rat NTPDase3 (Rattus norvegicus, UniProt A6I415); assay: Rat NTPDase3 inhibition, in-capillary electrophoresis method (standard compounds); format: biochemical; details: read-out: NTPDase3 Ki ± SEM
T5 sequence (A6I415 1-529): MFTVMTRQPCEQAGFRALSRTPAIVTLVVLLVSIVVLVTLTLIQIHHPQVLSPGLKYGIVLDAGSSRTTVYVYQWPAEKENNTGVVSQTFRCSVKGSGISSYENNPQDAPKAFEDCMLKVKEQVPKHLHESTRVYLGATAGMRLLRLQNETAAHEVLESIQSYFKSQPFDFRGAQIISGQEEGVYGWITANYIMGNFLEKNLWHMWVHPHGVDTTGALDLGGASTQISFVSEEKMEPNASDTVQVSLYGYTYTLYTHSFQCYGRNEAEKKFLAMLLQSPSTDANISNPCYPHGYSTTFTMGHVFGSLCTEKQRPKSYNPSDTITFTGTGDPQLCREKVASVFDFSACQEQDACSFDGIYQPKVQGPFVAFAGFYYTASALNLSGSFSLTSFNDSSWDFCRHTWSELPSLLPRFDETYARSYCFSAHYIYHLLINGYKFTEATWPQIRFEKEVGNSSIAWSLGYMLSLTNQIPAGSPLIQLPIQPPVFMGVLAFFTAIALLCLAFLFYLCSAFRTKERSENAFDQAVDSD

[10] = test system: ecto-nucleotide pyrophosphatases (E-NPP); details: in words; cited from earlier work
[11] = molecular target: P2Y2 (Homo sapiens, UniProt P41231); assay: Potency of standard compounds at P2Y2 receptor; details: SEM not given
[12] = molecular target: P2Y4 (Homo sapiens, UniProt P51582); assay: Potency of standard compounds at P2Y4 receptor
[13] = molecular target: P2Y6 (Homo sapiens, UniProt Q15077); assay: Potency of standard compounds at P2Y6 receptor; details: for Ki: standard compounds, SEM not given
[14] = molecular target: P2X1 (Homo sapiens, UniProt P51575); details: standard inhibitors; reference mark 15; read-out: P2X1 Ki ± SEM; cited from earlier work
[15] = molecular target: P2Y12 (Homo sapiens, UniProt Q9H244); assay: Potency of standard compounds at P2Y12 receptor; details: SEM not given
[16] = molecular target: P2X2 (Homo sapiens, UniProt Q9UBL9); details: standard inhibitors; reference mark 15; read-out: P2X2 Ki ± SEM; cited from earlier work
[17] = molecular target: P2X3 (Homo sapiens, UniProt P56373); details: standard inhibitors; reference mark 15; read-out: P2X3 Ki ± SEM; cited from earlier work
[18] = molecular target: P2X5 (Homo sapiens, UniProt Q93086); details: standard inhibitors; reference mark 15; read-out: P2X5 Ki ± SEM; cited from earlier work
[19] = standard compounds, SEM not given

P2Y6, sequence (Q15077 whole entry, species assumed): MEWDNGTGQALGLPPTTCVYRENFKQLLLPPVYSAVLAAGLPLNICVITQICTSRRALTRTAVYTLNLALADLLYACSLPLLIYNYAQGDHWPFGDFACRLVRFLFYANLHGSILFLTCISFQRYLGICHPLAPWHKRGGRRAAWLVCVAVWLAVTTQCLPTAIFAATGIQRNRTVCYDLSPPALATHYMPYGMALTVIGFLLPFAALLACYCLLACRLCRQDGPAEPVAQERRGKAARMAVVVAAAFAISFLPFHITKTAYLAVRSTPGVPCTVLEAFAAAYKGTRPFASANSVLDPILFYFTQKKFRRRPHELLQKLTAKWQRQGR
P2Y4, sequence (P51582 whole entry, species assumed): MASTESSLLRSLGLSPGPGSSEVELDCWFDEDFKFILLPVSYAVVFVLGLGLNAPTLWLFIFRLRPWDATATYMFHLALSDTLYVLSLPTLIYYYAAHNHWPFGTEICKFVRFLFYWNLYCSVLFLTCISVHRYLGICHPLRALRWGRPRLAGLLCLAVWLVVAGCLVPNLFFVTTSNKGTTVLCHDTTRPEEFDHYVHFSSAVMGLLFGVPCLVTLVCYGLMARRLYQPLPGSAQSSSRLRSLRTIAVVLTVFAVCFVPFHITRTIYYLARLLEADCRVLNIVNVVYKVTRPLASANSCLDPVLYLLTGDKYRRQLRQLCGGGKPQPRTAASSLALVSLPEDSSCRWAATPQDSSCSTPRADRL
P2Y2, sequence (P41231 whole entry, species assumed): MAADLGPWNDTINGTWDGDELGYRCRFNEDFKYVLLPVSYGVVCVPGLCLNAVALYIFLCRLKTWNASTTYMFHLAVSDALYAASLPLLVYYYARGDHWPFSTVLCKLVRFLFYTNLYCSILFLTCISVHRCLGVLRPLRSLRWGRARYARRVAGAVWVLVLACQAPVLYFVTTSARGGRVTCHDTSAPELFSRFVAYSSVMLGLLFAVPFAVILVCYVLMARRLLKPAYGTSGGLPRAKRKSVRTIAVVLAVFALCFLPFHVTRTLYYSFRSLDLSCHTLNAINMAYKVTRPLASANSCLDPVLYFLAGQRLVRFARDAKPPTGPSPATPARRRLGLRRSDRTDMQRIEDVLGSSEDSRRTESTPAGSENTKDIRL
hP2Y12, sequence (Q9H244 whole entry): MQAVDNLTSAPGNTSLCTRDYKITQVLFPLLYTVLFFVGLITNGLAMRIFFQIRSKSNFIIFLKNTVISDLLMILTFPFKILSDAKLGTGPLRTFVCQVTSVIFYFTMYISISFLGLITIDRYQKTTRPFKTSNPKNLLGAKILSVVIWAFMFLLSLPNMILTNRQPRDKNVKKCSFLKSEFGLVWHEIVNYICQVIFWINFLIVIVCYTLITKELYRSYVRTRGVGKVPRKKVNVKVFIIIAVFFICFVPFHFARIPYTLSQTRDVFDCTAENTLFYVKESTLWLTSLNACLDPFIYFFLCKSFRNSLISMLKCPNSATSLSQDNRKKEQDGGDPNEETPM
P2X2, sequence (Q9UBL9 whole entry, species assumed): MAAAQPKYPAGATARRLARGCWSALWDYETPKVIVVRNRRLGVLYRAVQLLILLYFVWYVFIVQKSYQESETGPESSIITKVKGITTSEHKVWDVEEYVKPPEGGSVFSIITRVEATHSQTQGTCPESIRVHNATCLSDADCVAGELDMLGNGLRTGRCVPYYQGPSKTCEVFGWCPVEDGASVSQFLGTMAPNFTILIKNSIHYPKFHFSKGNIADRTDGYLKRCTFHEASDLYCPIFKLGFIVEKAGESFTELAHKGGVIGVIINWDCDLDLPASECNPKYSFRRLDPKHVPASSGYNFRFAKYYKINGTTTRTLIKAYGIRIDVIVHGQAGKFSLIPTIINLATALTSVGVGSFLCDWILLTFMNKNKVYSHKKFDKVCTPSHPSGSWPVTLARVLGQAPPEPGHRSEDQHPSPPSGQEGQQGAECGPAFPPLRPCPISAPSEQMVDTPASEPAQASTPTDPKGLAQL
hP2Y4, sequence (P51582 whole entry): as the sequence (P51582 whole entry, species assumed) above
rP2Y6, sequence (Q63371 whole entry): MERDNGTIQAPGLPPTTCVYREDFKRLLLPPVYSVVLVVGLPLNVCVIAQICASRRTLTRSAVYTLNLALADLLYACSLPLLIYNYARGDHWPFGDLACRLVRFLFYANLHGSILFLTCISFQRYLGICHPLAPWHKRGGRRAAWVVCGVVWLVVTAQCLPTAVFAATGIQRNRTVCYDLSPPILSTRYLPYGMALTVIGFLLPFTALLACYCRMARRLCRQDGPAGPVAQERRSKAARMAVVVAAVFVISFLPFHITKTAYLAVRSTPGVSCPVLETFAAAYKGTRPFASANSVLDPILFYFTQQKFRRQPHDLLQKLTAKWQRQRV
P2X1, sequence (P51575 whole entry, species assumed): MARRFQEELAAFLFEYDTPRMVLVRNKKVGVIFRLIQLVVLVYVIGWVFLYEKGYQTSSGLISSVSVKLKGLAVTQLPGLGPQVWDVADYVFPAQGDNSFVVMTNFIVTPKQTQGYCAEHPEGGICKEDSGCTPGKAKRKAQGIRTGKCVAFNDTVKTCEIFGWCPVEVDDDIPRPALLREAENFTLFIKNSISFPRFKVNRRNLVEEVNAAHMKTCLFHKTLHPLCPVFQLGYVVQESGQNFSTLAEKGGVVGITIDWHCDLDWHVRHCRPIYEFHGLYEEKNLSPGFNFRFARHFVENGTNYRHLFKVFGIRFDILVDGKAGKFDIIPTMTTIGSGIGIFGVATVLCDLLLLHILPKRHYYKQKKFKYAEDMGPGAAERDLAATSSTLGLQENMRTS
hP2Y2, sequence (P41231 whole entry): as the sequence (P41231 whole entry, species assumed) above
P2X5, sequence (Q93086 whole entry, species assumed): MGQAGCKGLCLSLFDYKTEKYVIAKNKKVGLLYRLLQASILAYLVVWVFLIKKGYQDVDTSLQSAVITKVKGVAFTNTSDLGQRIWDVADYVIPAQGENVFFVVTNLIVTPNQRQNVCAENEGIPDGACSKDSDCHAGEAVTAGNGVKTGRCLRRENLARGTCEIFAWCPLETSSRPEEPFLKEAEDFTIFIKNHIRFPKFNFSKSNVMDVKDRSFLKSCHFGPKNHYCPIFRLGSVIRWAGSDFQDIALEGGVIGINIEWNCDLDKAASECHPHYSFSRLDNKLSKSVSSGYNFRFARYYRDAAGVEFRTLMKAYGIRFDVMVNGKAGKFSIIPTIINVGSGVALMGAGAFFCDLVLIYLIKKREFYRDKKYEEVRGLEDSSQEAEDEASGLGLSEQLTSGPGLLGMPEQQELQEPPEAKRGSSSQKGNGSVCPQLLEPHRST
P2Y12, sequence (Q9H244 whole entry, species assumed): as the sequence (Q9H244 whole entry) above
P2X3, sequence (P56373 whole entry, species assumed): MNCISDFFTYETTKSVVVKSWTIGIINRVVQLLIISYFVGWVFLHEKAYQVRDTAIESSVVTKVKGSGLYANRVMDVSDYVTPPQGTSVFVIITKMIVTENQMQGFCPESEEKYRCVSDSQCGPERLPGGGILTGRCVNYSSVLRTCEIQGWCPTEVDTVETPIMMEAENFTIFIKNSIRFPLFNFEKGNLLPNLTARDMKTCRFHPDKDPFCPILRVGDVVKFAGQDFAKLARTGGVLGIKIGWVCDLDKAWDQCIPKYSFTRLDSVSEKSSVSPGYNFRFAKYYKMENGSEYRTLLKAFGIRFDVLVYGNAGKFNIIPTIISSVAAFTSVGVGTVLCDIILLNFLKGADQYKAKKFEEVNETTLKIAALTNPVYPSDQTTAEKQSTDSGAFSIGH

Q: Which Ki [1] does the source give for `CCOP(=O)(OCC)C(NC(=O)CCNC(=O)[C@H]1O[C@@H](n2ccc(=O)[nH]c2=O)C(O)C1O)P(=O)(OCC)OCC` (stereo in doubt) [Compound 11, 3-[(2S,3R,4S,5R)-5-(2,4-Dioxo-3,4-dihydropyrimidin-1(2H)-yl)-3,4-dihydroxy-tetrahydrofurane-2-carboxamido]propaneamidomethylenediphosphonic acid tetraethylester] here?
A: The Ki was 325 ± 25 µM.

Q: And the Ki [2]?
A: Its Ki is roughly 175 µM.

Q: And the inhibition at 1000 µM [2]?
A: The inhibition at 1000 µM was 51%.

Q: And the inhibition at 100 µM [3]?
A: The inhibition at 100 µM was -12 ± 24%.

Q: What about the inhibition at 100 µM [4] of the same compound?
A: Its inhibition at 100 µM is 7 ± 20%.

Q: What about the inhibition at 100 µM [5] of the same compound?
A: Its inhibition at 100 µM is 14 ± 2%.

Q: And the inhibition at 10 µM [6]?
A: Its inhibition at 10 µM is 1 ± 5%.

Q: With `CCOP(=O)(OCC)C(NC(=O)CCCNC(=O)[C@H]1O[C@@H](n2ccc(=O)[nH]c2=O)C(O)C1O)P(=O)(OCC)OCC` (stereo in doubt) [Compound 12, 4-[(2S,3R,4S,5R)-5-(2,4-Dioxo-3,4-dihydropyrimidin-1(2H)-yl)-3,4-dihydroxytetrahydrofurane-2-carboxamido]butaneamidomethylenediphosphonic acid tetraethylester] as the compound, how does the Ki [1] read?
A: Its Ki is 32.4 ± 1.1 µM.

Q: What about the Ki [2] of the same compound?
A: The Ki was roughly 165 µM.

Q: What about the inhibition at 1000 µM [2] of the same compound?
A: The inhibition at 1000 µM was 54%.

Q: And the inhibition at 100 µM [3]?
A: Its inhibition at 100 µM is -44 ± 20%.

Q: What about the inhibition at 100 µM [4] of the same compound?
A: Its inhibition at 100 µM is 27 ± 7%.

Q: And the inhibition at 100 µM [5]?
A: The inhibition at 100 µM was 18 ± 4%.

Q: And the inhibition at 10 µM [6]?
A: The inhibition at 10 µM was 1 ± 5%.

Q: Which results are given for `CCN(CC)c1ncnc2c1ncn2C1OC(COP(=O)(O)OP(=O)(O)C(Br)(Br)P(=O)(O)O)C(O)C1O` (stereo not drawn) [ARL67156, N^6-Diethyl-β,γ-dibromomethylene-ATP]?
A: Ki [7]: 27 ± 0.004 µM; Ki [8]: > 600 µM; Ki [9]: 112.1 ± 0.05 µM; metabolic stability towards ecto-nucleotide pyrophosphatases (E-NPP) [10]: metabolically unstable

Q: For `Cc1nc(N=Nc2ccc(S(=O)(=O)O)cc2S(=O)(=O)O)c(COP(=O)(O)O)c(C=O)c1O` [PPADS, pyridoxalphosphate-6-azophenyl-2′,4′-disulfonic acid], which Ki [7] is on record?
A: The Ki was 46 ± 0.01 µM.

Q: And the Ki [8]?
A: Its Ki is 44.2 ± 0.03 µM.

Q: What about the Ki [9] of the same compound?
A: Its Ki is 3 ± 0.001 µM.

Q: And the “P2Y2 Ki ± SEM [μM]” value [11]?
A: Its value is “inactive”.

Q: And the “P2Y4 inhib. at 100 μM” value ([12]; 100 μM)?
A: The value was 73%.

Q: What about the “P2Y6 inhib. at 100 μM” value ([13]; 100 μM) of the same compound?
A: Its value is 69%.

Q: And the Ki [14]?
A: The Ki was 0.13 µM.

Q: With `Nc1c(S(=O)(=O)O)cc(Nc2ccc(Nc3nc(Cl)nc(Nc4cccc(S(=O)(=O)O)c4)n3)c(S(=O)(=O)O)c2)c2c1C(=O)c1ccccc1C2=O` [RB2, reactive blue 2] as the compound, how does the Ki [11] read?
A: The Ki was 1 µM.

Q: What about the Ki [12, 19] of the same compound?
A: The Ki was greater than 100 µM.

Q: And the Ki [13]?
A: The Ki was 31 µM.

Q: What about the Ki [15] of the same compound?
A: Its Ki is 1.3 µM.

Q: What about the Ki [14] of the same compound?
A: The Ki was 2 µM.

Q: What about the Ki [16] of the same compound?
A: Its Ki is 0.4 µM.

Q: And the Ki [17]?
A: The Ki was 50 µM.

Q: And the Ki [18]?
A: Its Ki is 20 µM.

Q: What does the source list for `Cc1ccc(C(=O)Nc2ccc(S(=O)(=O)O)c3cc(S(=O)(=O)O)cc(S(=O)(=O)O)c23)cc1NC(=O)c1cccc(NC(=O)Nc2cccc(C(=O)Nc3cc(C(=O)Nc4ccc(S(=O)(=O)O)c5cc(S(=O)(=O)O)cc(S(=O)(=O)O)c45)ccc3C)c2)c1` [Suramin, suramin]?
A: Ki [7]: 300 ± 0.1 µM; Ki [8]: 65.4 ± 0.01 µM; Ki [9]: 12.7 ± 0.03 µM; Ki [11]: 50 µM; P2Y4 Ki ± SEM [μM] [12, 19]: inactive; Ki [13]: > 100 µM; Ki [16]: 10 µM; Ki [18]: 1.6 µM
